According to US8283465B2, “Triazolopyridine compound, and action thereof as prolyl hydroxylase inhibitor or erythropoietin production-inducing agent” (Japan Tobacco Inc., priority 2009, dated 2012):
Counter-ions that a name gives are not always drawn. Like-named read-outs stand apart in the source and are kept apart here.

Tested on: human EPO production, Hep3B cells
Assay: Human EPO production activity in Hep3B cells (EPO-ELISA of culture supernatant)
Format: cell-based
Details: for EC50: 24 hr incubation, values consisting solely of numbers, read-out: EC50 (μM) in vitro, human EPO production activity; for production activity (%) at 30 μM in vitro, human EPO: 24 hr, values containing %, relative to maximum production
Protocol: The activity of the test compound on human EPO production was measured using Hep3B (AMC) established from human liver-derived cell line.
Hep3B cells were cultured in Eagle-MEM medium containing 10% fetal bovine serum, and the test compound was diluted with dimethyl sulfoxide (DMSO).
Hep3B cells were cultured in a 96-well plate, and a test compound was added at each concentration 24 hr later. After incubation at 37° C. for 24 hr, the culture supernatant was collected. The concentration of human EPO produced in the culture supernatant was measured using a human EPO-ELISA kit (manufactured by StemCell Technologies, 01630) according to the manufacturer's explanation, and the human EPO production activity (%) of the test compound was calculated based on the maximum value of production under the above conditions and the value without addition of the test compound. […] In these Tables, the values consisting solely of numbers show EC50 (μM) and those containing % show human EPO production activity (%) at […].

SMILES: O=C(O)CNC(=O)c1c(O)cc(-c2ccccc2)n2ncnc12 [Example 22, [(7-hydroxy-5-phenyl[1,2,4]triazolo[1,5-a]pyridine-8-carbonyl)amino]acetic acid hydrochloride]
- EC50 (Homo sapiens, Hep3B, 24 h): 13.7 µM

SMILES: O=C(O)CNC(=O)c1c(O)ccn2cnnc12 [Example 10, [(7-hydroxy[1,2,4]triazolo[4,3-a]pyridine-8-carbonyl)amino]acetic acid hydrochloride]
- production activity (%) at 30 μM in vitro, human EPO: 0%

SMILES: Cc1nc2c(C(=O)NCC(=O)O)c(O)cc(CCc3ccccc3)n2n1 [Example 7, [(7-hydroxy-2-methyl-5-phenethyl[1,2,4]triazolo[1,5-a]pyridine-8-carbonyl)amino]acetic acid hydrochloride]
- EC50 (Homo sapiens, Hep3B, 24 h): 18.4 µM

SMILES: CCc1c(O)c(C(=O)NCC(=O)O)c2ncnn2c1CC.Cl [Example 4, [(5,6-diethyl-7-hydroxy[1,2,4]triazolo[1,5-a]pyridine-8-carbonyl)amino]acetic acid hydrochloride]
- production activity (%) at 30 μM in vitro, human EPO: 38%

SMILES: O=C(O)CNC(=O)c1c(O)cc(C2CCCCC2)c2ncnn12 [Example 92, [(8-cyclohexyl-6-hydroxy[1,2,4]triazolo[1,5-a]pyridine-8-carbonyl]amino] acetic acid hydrochloride]
- EC50 (Homo sapiens, Hep3B, 24 h): 18.5 µM

SMILES: O=C(O)CNC(=O)c1c(O)cc(C2CCCCC2)n2ncnc12 [Example 27, [(5-cyclohexyl-7-hydroxy[1,2,4]triazolo[1,5-a]pyridine-8-carbonyl)amino]acetic acid hydrochloride]
- EC50 (Homo sapiens, Hep3B, 24 h): 7.7 µM

SMILES: CCCCCc1cc(O)c(C(=O)NCC(=O)O)c2ncnn12 [Example 74, [(7-hydroxy-5-pentyl[1,2,4]triazolo[1,5-a]pyridine-8-carbonyl)amino] acetic acid hydrochloride]
- EC50 (Homo sapiens, Hep3B, 24 h): 8.3 µM

SMILES: O=C(O)CNC(=O)c1c(O)cc(-c2cccc(Cl)c2)c2ncnn12 [Example 84, {[8-(3-chlorophenyl)-6-hydroxy[1,2,4]triazolo[1,5-a]pyridine-5-carbonyl]amino} acetic acid]
- EC50 (Homo sapiens, Hep3B, 24 h): 11 µM

SMILES: CCCCCc1cn2ncnc2c(C(=O)NCC(=O)O)c1O [Example 71, [(7-hydroxy-6-pentyl[1,2,4]triazolo[1,5-a]pyridine-8-carbonyl)amino] acetic acid hydrochloride]
- EC50 (Homo sapiens, Hep3B, 24 h): 15.8 µM

SMILES: Cl.O=C(O)CNC(=O)c1c(O)ccc2ncnn12 [Example 107, [(6-hydroxy[1,2,4]triazolo[1,5-a]pyridine-5-carbonyl]amino} acetic acid hydrochloride]
- production activity (%) at 30 μM in vitro, human EPO: 4%

SMILES: CCCCc1cc(O)c(C(=O)NCC(=O)O)c2ncnn12 [Example 117, [(5-butyl-7-hydroxy[1,2,4]triazolo[1,5-a]pyridine-8-carbonyl)amino] acetic acid]
- EC50: 7.7 µM

SMILES: O=C(O)CNC(=O)c1c(O)cc(-c2ccccc2)c2ncnn12 [Example 83, [(6-hydroxy-8-phenyl[1,2,4]triazolo[1,5-a]pyridine-5-carbonyl)amino] acetic acid hydrochloride]
- EC50 (Homo sapiens, Hep3B, 24 h): 20.7 µM

SMILES: O=C(O)CNC(=O)c1c(O)cc(CCc2ccccc2)c2ncnn12 [Example 87, [(6-hydroxy-8 phenethyl[1,2,4]triazolo[1,5-a]pyridine-5-carbonyl)amino] acetic acid hydrochloride]
- EC50 (Homo sapiens, Hep3B, 24 h): 18.5 µM

SMILES: CCCc1cc(O)c(C(=O)NCC(=O)O)c2ncnn12 [Example 65, [(7-hydroxy-5-propyl[1,2,4]triazolo[1,5-a]pyridine-8-carbonyl)amino] acetic acid hydrochloride]
- production activity (%) at 30 μM in vitro, human EPO: 49%

SMILES: O=C(O)CNC(=O)c1c(O)cc(-c2cccc(Cl)c2)n2ncnc12 [Example 44, {[5-(3-chlorophenyl)-7-hydroxy[1,2,4]triazolo[1,5-a]pyridine-8-carbonyl]amino}acetic acid]
- EC50 (Homo sapiens, Hep3B, 24 h): 10.4 µM

SMILES: CCCCc1cc(O)c(C(=O)NCC(=O)O)c2ncnn12 [Example 3, [(5-butyl-7-hydroxy[1,2,4]triazolo[1,5-a]pyridine-8-carbonyl)amino]acetic acid hydrochloride]
- EC50 (Homo sapiens, Hep3B, 24 h): 12.4 µM
